{
  "source": "patent US12503425B2",
  "about": "“Methods of treating or controlling cytotoxic cerebral edema” (Aeromics, Inc., priority 2012, dated 2025)",
  "key": {"cerebral edema [1]": {"system": "cerebral edema", "test": "Mouse water toxicity model, brain volume by MRI", "conditions": "0.76 mg/kg, versus no drug", "procedure": "The first time point at 5.67 min coincides with the scan slice at the middle of the brain during the first post-injection scan. Other time points are placed in a similar manner. The data is fitted to a single exponential equation: V/V0=Vi+dVmax(1−e^(−kt)); • where V/V0=relative brain volume, Vi=initial relative brain volume, dVmax=maximum change in relative brain volume, k=first order rate constant (min^−1), and t=time in minutes.\nMouse Water Toxicity Model-Brain Volume by Magnetic Resonance Imaging (MRI): MRI is used to measure changes in brain volume in response to water shock, using the water toxicity model. As described for the survival and brain water content studies above, mice are injected, IP, with a water bolus alone or water bolus and test compound at 0.76 mg/kg, and changes in brain volume as detected by MRI are monitored. […] This imaging method is found to provide sufficient contrast and resolution to sensitively detect changes in total brain volume in the mouse water toxicity model for cerebral edema. […] The cross sectional area of the brain in each imaging slice is measured by manual region-of-interest selection using ImageJ. Brain volumes are then calculated for each scan by summing the individual cross sectional brain areas and multiplying by the slice thickness (0.7 mm)."}, "cerebral edema [2]": {"system": "cerebral edema", "test": "Mouse water toxicity model, brain water content", "format": "in vivo", "conditions": "at 30 minutes", "experimental": "Mouse Water Toxicity Model-Brain Water Content: Compounds are also tested for the ability to reduce CE in mice exposed to the water shock by examining brain water content. Mice are treated with a water bolus as described above, then sacrificed at 30 minutes. Brain water content is assessed by fresh/dry weight ratio, i.e. the brains are weighed immediately then desiccated in an oven at 100° C. for 24 h and dry weights measured (brain water percentage=[…])."}, "[3]": {"test": "Bioconversion of Compound 5 to Compound 1 in mouse plasma in vitro", "format": "in vitro ADME", "conditions": "20° C."}, "[4]": {"system": "middle cerebral artery occlusion (MCAo)", "test": "Mouse MCAo stroke model, neurological outcome (5 point scale)", "format": "in vivo", "conditions": "5 mg/kg i.p. every three hours", "excerpt": "An improvement in neurological outcome is observed for animals given Compound 5. Control animals have an average neurological score of 2.77±0.66, while animals given Compound 5 have an average score of 0.88±0.31 (FIG. 13, inset, P=0.025, n=9 per treatment)."}, "AQP": {"system": "AQP", "test": "AQP inhibition cell-based assay (Table 1)"}},
  "data": [
    {"smiles": "O=C(Nc1cc(C(F)(F)F)cc(C(F)(F)F)c1)c1cc(Cl)ccc1O", "note": "[Compound 1]", "values": [
      {"measurement": "reduction of the rate of CE development", "setting": "cerebral edema [1]", "value": 2.5, "unit": "fold"},
      {"measurement": "detection in plasma samples from mice injected IP with Compound 5", "value": "undetectable"},
      {"measurement": "reduction in CE (brain water content)", "setting": "cerebral edema [2]; 0.76 mg/kg", "value": 11.2, "unit": "%"},
      {"measurement": "reduction in CE (brain water content)", "setting": "cerebral edema [2]; 7.6 mg/kg", "value": 15.9, "unit": "%"}
    ]},
    {"smiles": "O=C(Nc1cc(C(F)(F)F)cc(C(F)(F)F)c1)c1cc(Cl)ccc1OP(=O)(O)O", "note": "[Compound 5]", "values": [
      {"measurement": "time sufficient to render Compound 5 undetectable", "setting": "[3]", "value": "Less than 5 minutes"},
      {"measurement": "progression of neurological state (in words)", "setting": "[4]", "value": "did not progress into a state of severe paralysis or death"}
    ]},
    {"smiles": "O=C(Nc1ccccc1)c1ccccc1", "note": "[Phenylbenzamide]", "values": [
      {"measurement": "AQP inhibition Cell-Based Assay (%)", "setting": "AQP", "value": 4.5, "unit": "%"}
    ]}
  ]
}
